{"source": "paper PMC10818746", "about": "“Inhibition of CYP1A1 Alleviates Colchicine-Induced Hepatotoxicity” (Toxins, 2024)", "key": {"CYP1A1 [1]": {"test_system": "CYP1A1", "test": "CYP1A1 gene and protein expression in primary hepatocytes", "format": "cell-based, C57BL/6J mice", "settings": "colchicine 4–400 µM, 48 h", "procedure": "(§1) The method of isolating primary mouse hepatocytes from mice (C57BL/6J) was that shown in the previous report, and it is briefly described in Supporting Information.\n(§2) The cells were harvested and used for protein extraction after incubation for 48 h. […]\n(§3) Supplementary materials and methods […]\n(§4) Preparation of primary hepatocytes\n(§5) Primary mouse hepatocytes were isolated from male C57BL/6J mice as shown in previous literature. The liver was perfused through the portal vei n with Hanks solution twice (the first solution contains 1% penicillin/streptomycin, the second solution contains 0.05% collagenase IV) after mice were anesthetized with ether, and then they were killed by exsanguination. Hepatocytes were harvested by centrifugation three times (The first centrifugal condition is 50 0 rpm for 3 minutes, the second and third centrifugal condition is 1500 rpm for 5 min) after the perfused liver was passed through 100 filter sizes, and they were re‐suspended in Dulbeco Modified Eagle Medium (DMEM) (Hyclone, USA).\nCells were collected and seeded at a density of 2 × 10^5 cells ml‐1 in plates and cultured overnight in William E (Gibco, USA) medium (0.5 U/mL insulin, 1% penicillin/streptomycin, 10% FBS and 0.4 μg/mL dexamethasone) at 37 ℃ in a humidified Air /CO2 Incubator (5% V/V).\nQuantitative real‐time PCR analysis\nQPCR were performed as described previously. […]"}, "CASPASE-1-GSDMD pathway": {"test_system": "CASPASE-1-GSDMD pathway", "test": "Western blot of CASPASE-1-GSDMD pathway in primary hepatocytes", "format": "cell-based, C57BL/6J mice", "procedure": "as §1, §2, §3, §4, §5\n(§6) Cells were collected and seeded at a density of 2 × 10^5 cells ml‐1 in plates and cultured overnight in William E (Gibco, USA) medium (0.5 U/mL insulin, 1% penicillin/streptomycin, 10% FBS and 0.4 μg/mL dexamethasone) at 37 ℃ in a humidified Air /CO2 Incubator (5% V/V). […]\nQPCR were performed as described previously. Briefly, Trizol reagent (Life Technologi es, Carlsbad, CA, USA) and SYBR Green PCR master mixture (Vazyme, Nanjing, China) were used for the experiment . The qPCR was performed in the CFX Connect real‐time system (Bio‐Rad Laboratories, Hercules, CA, USA), with 18S was used as […]\nThe methods for Western blot analysis were described in previous literature. Briefly, RIPA (POO13B, Beyotime Biotech), BCA kit (P0009, Beyotime Biotech), and 5% BSA (A8020, Solarbio) buffer were used for the experiment. […]"}, "liver [2]": {"test_system": "liver", "test": "Colchicine-induced liver injury in mice", "protocol": "The animal studies were approved by the Animal Care and Use Committee of West China Hospital, Sichuan University (20230412004, the ethics approval date was 12 April 2023). Chengdu Yaokang Biotechnology Co., Ltd. (Chengdu, China), provided the male C57BL/6J mice (18–22 g, 6 to 8 weeks old, No. SCXK (Sichuan) 2020-034). All animals were acclimated to the experimental environment for 1 week, and finally, the animals were anesthetized with CO2 and killed [38].\nALP, ALT and AST were measured in plasma, and MDA (Nanjing Jiancheng Bioengineering Institute, Nanjing, China) was measured in the liver. Histological characteristics were observed by preparing paraffin sections of liver tissue and performing hematoxylin and eosin (H&E) staining."}, "CYP1A1 [3]": {"test_system": "CYP1A1", "test": "CYP1A1 gene and protein expression in the liver of colchicine-treated mice", "format": "in vivo, C57BL/6J mice", "settings": "colchicine 3, 5 mg/kg by gavage for 3 days; dose-dependent", "procedure": "(§7) Ruoyue Huang, Jingyi Duan, We n Huang, Ya n Cheng, Bei wei Zhu and Fei Li\n(§8) Supplementary materials and methods\n(§9) Reference numbers refer to the main text list\n(§10) UHPLC‐Q exactive plus MS Analysis\n(§11) All samples were analyzed on a liquid chromatography system including a Vanquish autosampler, Vanquish detector, Vanquish pump (Thremo Fisher Scientific, Santa Clara, CA). Samples were separated on an ACQUITY UPLC HSS T3 column (2.1×100 mm, […], Waters, USA). The injection volume: 5 μL, and the flow rate was 0.3 mL/min.\n(§12) Phase A was H2O containing 0.01% formic acid, and phase B was acetonitrile containing 0.01% formic acid. The elution gradient was as follows: 0‐12 mi n, 2‐98% B; 12‐14 min, 2% A; 14‐16 min, 98% A. Other parameters are as follows: column temperature 45 ℃ , flow rate of collision gas and dry gas 9 L/min. Capillary voltage 3.5 kV, temperature 350 ℃ , atomizer pressure 35 psi. Vanquish UHPLC‐Q Exactive plus MS (Thermo Fisher, USA) was collected in both positive modes, operating in full scan mode with 60‐900 m/z.\nas §4\nPrimary mouse hepatocytes were isolated from male C57BL/6J mice as shown in previous literature. […]\n(§13) Quantitative real‐time PCR analysis […]\n(§14) Immunohistochemistry was determined by used the previously described method. […]"}, "CYP1A1 [4]": {"target": "T1, CYP1A1 (Homo sapiens, UniProt P04798)", "T1 construct": "purchased Research Institute for Liver Diseases Co., Ltd. (Shanghai, China)", "T1 sequence (P04798 1-512)": "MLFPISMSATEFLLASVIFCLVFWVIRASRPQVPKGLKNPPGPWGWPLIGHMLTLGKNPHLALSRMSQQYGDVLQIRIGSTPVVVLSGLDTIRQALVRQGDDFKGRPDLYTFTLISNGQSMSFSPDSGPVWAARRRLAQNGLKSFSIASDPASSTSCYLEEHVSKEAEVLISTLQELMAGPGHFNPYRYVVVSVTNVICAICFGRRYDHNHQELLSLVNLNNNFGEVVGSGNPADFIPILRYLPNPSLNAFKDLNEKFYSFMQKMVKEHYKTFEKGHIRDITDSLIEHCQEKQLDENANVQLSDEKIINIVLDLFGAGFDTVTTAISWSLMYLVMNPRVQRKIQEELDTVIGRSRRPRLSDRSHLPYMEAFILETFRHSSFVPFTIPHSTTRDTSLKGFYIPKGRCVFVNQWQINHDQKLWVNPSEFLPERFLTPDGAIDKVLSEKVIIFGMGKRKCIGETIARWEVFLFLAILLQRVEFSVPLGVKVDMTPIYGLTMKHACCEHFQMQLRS", "test": "Inhibition of CYP1A1 demethylation metabolism of colchicine by co-incubation with inhibitor", "format": "biochemical", "settings": "colchicine 25 µM co-cultured with α-naphthoflavone 10 µM; n = 3", "procedure": "The control group was a system without NADPH or colchicine. […] Pre-cooled acetonitrile was used to terminate the reaction, and then centrifugation (4 °C, 12,000 rpm, 20 min) was performed to obtain the sample.\nAll samples were analyzed as shown in [17] and are briefly described in Supporting Information."}, "liver [5]": {"test_system": "liver", "test": "α-Naphthoflavone intervention in colchicine-induced liver injury in mice", "format": "in vivo, C57BL/6J mice"}, "primary hepatocytes": {"test_system": "primary hepatocytes", "test": "MTT cell viability in primary hepatocytes co-treated with colchicine and diosmin", "format": "cell-based, C57BL/6J mice", "settings": "diosmin pre-treatment 2 h, then colchicine 100 µM, 48 h", "excerpt": "The method of isolating primary mouse hepatocytes from mice (C57BL/6J) was that shown in the previous report, and it is briefly described in Supporting Information. […]\nas §3, §4, §5, §6\nQPCR were performed as described previously. Briefly, Trizol reagent (Life Technologi es, Carlsbad, CA, USA) and SYBR Green PCR master mixture (Vazyme, Nanjing, China) were used for the experiment . […]"}, "liver [6]": {"test_system": "liver", "test": "Diosmin co-treatment in colchicine-induced liver injury in mice", "format": "in vivo, C57BL/6J mice", "procedure": "To investigate the role of CYP1A1 in colchicine-induced liver injury in mice, a CYP1A1 agonist (diosmin) was used. […] All mice in the control group received 0.5% CMC-Na prior to the administration of water, and the mice were sacrificed for sample collection 24 h after the final administration.\nSupplementary Materials: Inhibition of CYP1A1 Alleviates\nas §7, §8, §9, §10, §11\nas §12, with “Vanquish UHPLC‐Q Exactive plus MS (Thermo Fisher, USA) was collected in both positive modes, operating in full scan mode with 60‐900 m/z.” left out\nas §13, §14"}, "[7]": {"settings": "colchicine 3, 5 mg/kg by gavage for 3 consecutive days"}}, "data": [{"smiles": "COc1cc2c(c(OC)c1OC)-c1ccc(OC)c(=O)cc1[C@@H](NC(C)=O)CC2", "note": "[colchicine, Colchicine]", "values": [{"measurement": "mRNA and protein levels of CYP1A1 in primary hepatocytes", "setting": "CYP1A1 [1]", "value": "dose-dependently increased"}, {"measurement": "CASPASE-1-GSDMD pathway in primary hepatocytes", "setting": "CASPASE-1-GSDMD pathway; colchicine group versus control", "value": "significantly up-regulated"}, {"measurement": "CASPASE-1-GSDMD pathway in the liver", "setting": "liver [2]; colchicine 5 mg/kg, versus control group", "value": "activated"}, {"measurement": "ALP enzyme level in plasma", "setting": "liver [2]; [7]", "value": "significantly increased"}, {"measurement": "ALT enzyme level in plasma", "setting": "liver [2]; [7]", "value": "significantly increased"}, {"measurement": "AST enzyme level in plasma", "setting": "liver [2]; [7]", "value": "significantly increased"}, {"measurement": "CASPASE-1 in the liver (gene expression, immunohistochemical staining)", "setting": "liver [2]; [7]", "value": "activated"}, {"measurement": "body weight of mice", "setting": "liver [2]; [7]", "value": "decreased significantly"}, {"measurement": "gross anatomy of the liver", "setting": "liver [2]; [7]", "value": "enlarged liver and shrunken gallbladder"}, {"measurement": "liver histology, H&E staining", "setting": "liver [2]; [7]", "value": "inflamed liver"}, {"measurement": "mRNA and protein levels of the CYP1A1 enzyme in the liver", "setting": "CYP1A1 [3]", "value": "increased"}]}, {"smiles": "O=c1cc(-c2ccccc2)oc2c1ccc1ccccc12", "note": "[α-naphthoflavone]", "values": [{"measurement": "demethylation metabolism of colchicine by CYP1A1", "setting": "CYP1A1 [4]", "value": "significantly inhibited"}, {"measurement": "colchicine-induced liver injury (AST, ALT enzyme activity and MDA oxidative stress)", "setting": "liver [5]; α-naphthoflavone 30 mg/kg i.p. 2 h prior to colchicine 5 mg/kg, 3 days", "value": "significantly alleviated"}, {"measurement": "CASPASE-1-GSDMD pathway proteins (cl-CASPASE, cl-GSDMD) in the liver", "setting": "liver [5]; α-naphthoflavone 30 mg/kg i.p. + colchicine 5 mg/kg, versus colchicine group", "value": "significantly down-regulated"}, {"measurement": "CASPASE-1-GSDMD pathway protein levels in primary hepatocytes", "setting": "CASPASE-1-GSDMD pathway; colchicine + different concentrations of α-naphthoflavone, dose-gradient manner, versus colchicine group", "value": "restored the abnormal protein levels"}]}, {"smiles": "COc1ccc(-c2cc(=O)c3c(O)cc(O[C@@H]4O[C@H](CO[C@@H]5O[C@@H](C)[C@H](O)[C@@H](O)[C@H]5O)[C@@H](O)[C@H](O)[C@H]4O)cc3o2)cc1O", "note": "[diosmin]", "values": [{"measurement": "primary hepatocyte death caused by colchicine (MTT)", "setting": "primary hepatocytes", "value": "exacerbated"}, {"measurement": "colchicine-induced CASPASE-1-GSDMD pathway activation in the liver (cl-CASPASE, cl-GSDMD)", "setting": "liver [6]; diosmin 100 mg/kg + colchicine 5 mg/kg, versus colchicine group", "value": "enhanced"}, {"measurement": "colchicine-induced hepatotoxicity (MDA, AST, ALT, ALP)", "setting": "liver [6]; diosmin 100 mg/kg by gavage 2 h prior to colchicine 5 mg/kg", "value": "effectively aggravated"}, {"measurement": "CASPASE-1-GSDMD pathway in primary hepatocytes", "setting": "CASPASE-1-GSDMD pathway; diosmin in a dose-gradient manner + colchicine 100 µM, compared to the colchicine-only group", "value": "significantly up-regulated"}]}]}
